Data: paper PMC3714011 (Journal of medicinal chemistry, 2013)

Key:
[1] = Solubility observed at highest doses tested in the proliferation assay; details: 90 μM for 2, 40 μM for 3 and 40 μM for 4
[2] = patients with advanced cancer; cited from earlier work
[3] = test system: Jurkat E6-1, HeLa, HEK293T, PC-3 and MCF-7; assay: iMet processing of 14-3-3γ by immunoblot in five neoplastic cell lines; assay type: cell-based, human; details: all five neoplastic cell lines, 100 nM, 24 hours
[4] = test system: iMet processing of 14-3-3γ in HUVEC; details: for signal of unprocessed 14-3-3γ in the presence of cycloheximide: HUVEC treated with cycloheximide prior to MetAP inhibitor
HsMetAP1 [5] = biological target: T1, HsMetAP1 (Homo sapiens, UniProt P53582); assay: ProIP-coupled MetAP activity assay, HsMetAP1 with Co; assay type: biochemical
HsMetAP1 [6] = biological target: T1, HsMetAP1; assay: LAO and HRP-coupled MetAP activity assay, HsMetAP1 with Zn; assay type: biochemical; details: concentrations up to 250 μM, Figure S3E
[7] = test system: iMet processing of 14-3-3γ in HDFa cells; details: 3–250 μM, 24 hours
Escherichia coli = details: at concentrations up to 1 mM; ref 46b; cited from earlier work
[8] = test system: initiator methionine of BTF3L4 in HEK293T cells; assay: Initiator methionine release assay, BTF3L4-3×Flag in HEK293T cells; assay type: cell-based, human; details: 10 μM 11j, 100 nM TNP-470
HsMetAP2 = HsMetAP2 (Homo sapiens, UniProt P50579); assay: ProIP-coupled MetAP activity assay, HsMetAP2 with Mn; assay type: biochemical
[9] = test system: initiator methionine of TXNL1 in HEK293T cells; assay: Initiator methionine release assay, TXNL1-3×Flag in HEK293T cells; assay type: cell-based, human; details: 10 μM
HDFa = assay: [3H]-thymidine incorporation assay, HDFa; assay type: cell-based; details: Homo sapiens, read-out: Inhibition of Cell Proliferation (EC50, μM) HDFa

Chain of HsMetAP2 (P50579 whole entry): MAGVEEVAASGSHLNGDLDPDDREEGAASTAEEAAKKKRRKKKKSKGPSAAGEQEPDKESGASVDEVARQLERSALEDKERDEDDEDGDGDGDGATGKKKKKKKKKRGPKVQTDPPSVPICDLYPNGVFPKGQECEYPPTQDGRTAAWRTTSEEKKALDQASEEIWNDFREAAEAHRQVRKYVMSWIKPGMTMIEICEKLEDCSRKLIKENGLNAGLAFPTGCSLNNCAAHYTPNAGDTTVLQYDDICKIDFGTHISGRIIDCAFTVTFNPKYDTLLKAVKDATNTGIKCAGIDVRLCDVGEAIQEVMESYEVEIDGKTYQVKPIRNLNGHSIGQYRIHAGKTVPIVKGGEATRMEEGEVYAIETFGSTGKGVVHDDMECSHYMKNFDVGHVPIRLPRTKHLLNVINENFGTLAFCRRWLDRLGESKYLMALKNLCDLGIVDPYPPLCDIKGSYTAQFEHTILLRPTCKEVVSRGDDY

Cc1nc(-c2ccccn2)nc(NCCNc2ccc(C(F)(F)F)cn2)c1Cl [compound 4]
solubility at highest doses tested [1]: No solubility problems

CO[C@@H](C(=O)N[C@H]1CC[C@@H](OC(=O)C2CCCCC2)CNC1=O)[C@H](O)[C@@H](O)[C@H](O)/C=C/C(C)(C)C [LAF-389]
reason for termination of the clinical study [2]: cardiovascular toxicity

CCCCCCCCCCCCCC(=O)O[C@H]1CC[C@H](NC(=O)[C@H](OC)[C@H](O)[C@@H](O)[C@H](O)/C=C/C(C)C)C(=O)NC1 [bengamide A]
increase in ratio of unprocessed versus total 14-3-3γ [3]: no more than 2.6 fold
signal of unprocessed 14-3-3γ in the presence of cycloheximide [4]: none of the MetAP inhibitors could generate a detectable signal
increase in ratio of unprocessed 14-3-3γ versus total 14-3-3γ ([4]; HUVEC, 24-hour treatment, 100 nM, Figure 2A): 8 fold
concentration of maximal response of accumulation of unprocessed 14-3-3γ ([4]; HUVEC, data not shown): around 10 nM

c1ccc(NCCNc2nc(-c3ccccn3)nc3ccccc23)cc1 [10b, N^1-Phenyl-N^2-[2-(pyridin-2-yl)quinazolin-4-yl]ethane-1,2-diamine]
inhibitory activity against HsMetAP1 in the presence of Mn(II) / absence of Co(II) (HsMetAP1 [5]; 10 μM Mn(II)): completely lost the inhibitory activity

c1ccc2[nH]c(-c3cscn3)nc2c1 [Thiabendazole, 4-(1H-1,3-benzodiazol-2-yl)-1,3-thiazole]
inhibition of HsMetAP1 in the absence of Co(II) (HsMetAP1 [6]): failed to inhibit
effect on the NME of 14-3-3γ ([4]; HUVEC, 3–250 μM, 24 hours): did not affect
effect on the NME of 14-3-3γ [7]: did not affect
activity against the growth of Escherichia coli (Escherichia coli): inactive

Clc1nc(-c2ccccn2)nc2ccccc12 [7a, 4-Chloro-2-(pyridin-2-yl)quinazoline]
inhibitory activity against HsMetAP1 in the presence of Mn(II) / absence of Co(II) (HsMetAP1 [5]; 10 μM Mn(II)): completely lost the inhibitory activity

c1ccc(-c2nc(N3CCOCC3)c3ccccc3n2)nc1 [compound 17]
increase in potency against HsMetAP1 with Co(II) compared with 10a (HsMetAP1 [5]): 19 fold

Cc1nc(-c2ccc(Cl)cn2)nc(NC[C@@H](NCCCCc2ccccc2)c2ccccc2)c1Cl [compound 3]
cytotoxicity ([4]; 10 μM, most cells floating after 24 hours): severe cytotoxicity
solubility at highest doses tested [1]: No solubility problems

Cc1nc(-c2ccccn2)nc(NCCc2ccccc2)c1Cl [compound 2, 5-chloro-6-methyl-N-(2-phenylethyl)-2-pyridin-2-ylpyrimidine-4-amine]
increase in ratio when TNP-470 was supplemented ([4]; HUVEC treated with 30 μM compound 2 plus TNP-470): 3.5 fold

CO[C@@H]1[C@H](OC(=O)NC(=O)CCl)CC[C@]2(CO2)[C@H]1[C@@]1(C)O[C@@H]1CC=C(C)C [TNP-470]
iMet retention of BTF3L4-3×Flag [8]: no appreciable increase
signal of unprocessed 14-3-3γ in the presence of cycloheximide [4]: none of the MetAP inhibitors could generate a detectable signal

c1ccc(-c2nc(NCCc3c[nH]c4ccccc34)c3ccccc3n2)nc1 [10c, N-[2-(1H-indol-3-yl)ethyl]-2-(pyridin-2-yl)quinazolin-4-amine]
increase in potency against HsMetAP1 with Co(II) compared with 10a (HsMetAP1 [5]): 7.8 fold
EC50 (HsMetAP1 [5]; EC50 (μM) HsMetAP1 Co(II), Table 2, 10 μM Co(II), mean ± SD of at least three determinations): 0.12 ± 0.02 µM
EC50 (HsMetAP1 [5]; EC50 (μM) HsMetAP1 Mn(II), Table 2, 10 μM Mn(II), mean ± SD): 5.3 ± 0.7 µM
increase in potency against HsMetAP1 with Mn(II) compared with 10a (HsMetAP1 [5]; Mn(II)): 4.5 fold
EC50 (HsMetAP2): > 300 µM

c1ccc(CCNc2nc(-c3ccccn3)nc3ccccc23)cc1 [10a, N-Phenethyl-2-(pyridin-2-yl)quinazolin-4-amine]
IC50 (HsMetAP1 [5]): 24 µM
inhibitory activity against HsMetAP1 in the presence of Mn(II) / absence of Co(II) (HsMetAP1 [5]; 10 μM Mn(II)): could completely inhibit HsMetAP1

COc1ccc(N2CCN(c3nc(-c4ccccn4)nc4ccccc34)CC2)cc1 [11j, 4-[4-(4-Methoxyphenyl)piperazin-1-yl]-2-(pyridin-2-yl)quinazoline]
increase of the release of [35S]-Met from TXNL1-3×Flag, more than the vehicle [9]: 40 ± 17%
iMet retention of BTF3L4-3×Flag [8]: no appreciable increase
signal of unprocessed 14-3-3γ in the presence of cycloheximide [4]: none of the MetAP inhibitors could generate a detectable signal
level of unprocessed 14-3-3γ over time ([4]; HUVEC, 10 μM, 1–7 hours): increased in a time-dependent manner

c1ccc(-c2ccccn2)nc1 [2,2′-Bipyridine, 2,2′-bipyridine]
inhibition at 100 µM (HsMetAP1 [5]; read-out: inhibition of the activity of HsMetAP1 in the absence of Co(II)): ≤ 30%
EC50 (HDFa): 10 to 30 µM
ability to block the NME of 14-3-3γ in cells, lower than 11j ([4]; Figure 6B): at least 30 times

O=C(O)COc1ccc(N2CCN(c3nc(-c4ccccn4)nc4ccccc34)CC2)cc1 [11e, 2-(4-{4-[2-(Pyridin-2-yl)quinazolin-4-yl]piperazin-1-yl}phenoxy)acetic acid]
EC50 (HsMetAP1 [5]; EC50 (μM) HsMetAP1 Mn(II), Table 3, 10 μM Mn(II), mean ± SD): > 100 µM
